Test results published in patent US20120014911A1, “Regulators of the Interferon-Alpha Receptor 1 (IFNAR1) Chain of the Interferon Receptor” (priority 2009, published 2012).

What was measured:
[1] = tested on: IFNAR1 Ser535 phosphorylation; test: IFN-α-induced Ser535 (degron) phosphorylation of IFNAR1 in cells, IP-immunoblot with anti-pS535; type: cell-based, human; settings: 293T cells, inhibitor pre-treatment, IFN-α
Protocol: (§1) Immunoprecipitation and immunoblotting procedures are described elsewhere (Fuchs et al, 1999, Oncogene 18:2039-2046). Protein degradation was carried out by cycloheximide (CHX, used at 20 μg/ml) chase. IFNAR1 internalization assay was carried out using the Fluorescence-based assay as described elsewhere (Kumar et al., 2007, J Cell Biol 179:935-950). BAY 43-9006 was obtained as a gift. Recombinant human IFN-a2 (Roferon) was purchased from Roche. Other reagents or inhibitors were purchased from commercial vendors.
(§2) Antibodies against Flag, GST and j3-actin (Sigma), HA (12CA, Roche), CK1α, PICD1/2 (PKCμ), PKD3 (PKCν), Tyk2, intracellular domain of hIFNAR1 and PKR, (Santa Cruz), anti-pan-phospho-tyrosine (4G10), phospho-Stat1 and Stat1 (Cell signaling), phospho-S710 of PKD2 (Biosource), PKD2 (Bethyl Laboratories), mIFNAR1 (Leinco) and ubiquitin (FK2, Biomol) were purchased. AA3, GB8 and EAl2 antibodies which recognize endogenous IFNAR1 (Goldman et al., 1999) and antibodies against IFNAR1 phosphorylated on Ser535 (pS535; (Kumar et al., 2004, J Biol Chem 279:46614-46620)) were described previously. Secondary antibodies conjugated to horseradish peroxidase were purchased from Chemicon and LI-COR. Immunoprecipitation and immunoblotting procedures are described elsewhere (Fuchs et al, 1999, Oncogene 18:2039-2046). Protein degradation was carried out by cycloheximide (CHX) chase in the presence of CHX (20 μg/ml). Immunoblot detection and quantification were carried out using the LI-COR's Odyssey Infrared Imaging System.

2fTGH cells = type: cell-based, human; settings: inhibitor pre-treatment 1 h, IFN-α pulse 1-2 h, read 24 h later
Stat1 = Stat1 tyrosine phosphorylation in response to IFN-α, immunoblot; type: cell-based, human; settings: HeLa cells, inhibitor pre-treatment 1 h, IFN-α pulse 15 min
IFNAR1 = test: Cycloheximide chase of IFNAR1 degradation; type: cell-based, human; settings: HeLa cells, CHX chase in the presence of IFN-α
Protocol: as §1
as §2, with “Immunoprecipitation and immunoblotting procedures are described elsewhere (Fuchs et al, 1999, Oncogene 18:2039-2046). Protein degradation was carried out by cycloheximide (CHX) chase in the presence of CHX (20 μg/ml).” left out

protein kinase D (PKD) = settings: literature (Gschwendt et al., 1996; Sharlow et al., 2008); cited from earlier work
[2] = tested on: vesicular stomatitis virus (VSV); type: cell-based; settings: human 2fTGH cells, IFN-α 25-100 U/ml, titer 24 hr after treatments

| SMILES | ligand-induced Ser535 phosphorylation of endogenous IFNAR1 [1] | ISRE-driven luciferase transcriptional activity (2fTGH cells) | ligand-induced phosphorylation of Stat1 (Stat1) | rate of proteolytic turnover (ligand-stimulated degradation) of IFNAR1 (IFNAR1) | inhibition of / specificity against PKD (protein kinase D (PKD)) | protective effect of IFN-α against VSV (viral titer) [2] |
| --- | --- | --- | --- | --- | --- | --- |
| O=C1NCCCc2c1oc1ccc(O)cc21 [CID755673] | significant inhibition | robustly augmented | noticeably prolonged | appreciable decrease | high specificity |  |
| O.O.O.O.O.O.O.O.O.O=C([O-])[C@@H]1[O][Sb](=[O])([O][Sb]2(=[O])[O][C@H]([C@H](O)CO)[C@H](O)[C@H](C(=O)[O-])[O]2)[O][C@H]([C@H](O)CO)[C@@H]1O.[Na+].[Na+].[Na+] (stereo partly drawn) [SSG] |  |  |  |  |  | potentiates the protective effect |
